From patent US12121614B2, “Delayed release composition for peroral administration” (VICORE PHARMA AB, priority 2020, dated 2024)

Assay: Dissolution studies of C21 sodium salt in buffers of different pH
Type: physicochemical
Procedure: 50.7 mg of C21 sodium salt (Ardena, Riga, Latvia) was added to 900 mL of 0.09M carbonate buffer (pH 8.95) at a temperature of 37±3° C. with stirring. […] After 15 minutes of stirring, 2M acetic acid solution was added dropwise to provide a pH of 4.52. Evolution CO2 was noted. […] After additional stirring for a further 1.5 hours, 1M NaOH was added to increase pH to 6.8.
51.2 mg of C21 sodium salt was added to 900 mL of acetate buffer (pH 4.4) at the same temperature with stirring. […] After stirring for 1 hour, 1M NaOH solution was added dropwise to increase the pH to 7.2.
53.2 mg of C21 sodium salt was added to 900 mL 0.1M of HCl buffer (pH 1.0) at the same temperature with stirring. […] After 20 minutes of stirring, 1M NaOH solution was added dropwise to increase the pH to 4.5.
51.0 mg of C21 sodium salt was added to 900 mL of 0.1M citrate buffer (pH 4.42) at the same temperature with stirring. The added compound formed a thin slurry. It seemed that nothing had dissolved.
50.8 mg of C21 sodium salt was added to 900 mL of an acetate buffer (pH 4.49) at the same temperature. […] After stirring for 1 hour, a 1M NaOH solution was added dropwise to increase the pH to 6.8.

- dissolution behaviour on addition (A) (50.7 mg in 900 mL 0.09M carbonate buffer pH 8.95, 37±3° C., stirring): dissolved instantly
- dissolution behaviour on addition (C) (53.2 mg in 900 mL 0.1M HCl buffer pH 1.0, 37±3° C., stirring): dissolved instantly
- appearance after acidification (A) ((A) 2M acetic acid added to pH 4.52, after stirring for 1 hour): formation of small white particles
- precipitation after raising pH (C) ((C) after 20 minutes, 1M NaOH added to pH 4.5): no precipitation was observed
- appearance after further stirring (C) ((C) pH 4.5, after stirring for 2 hours): solution still was clear
- decomposition of C21 by UPLC (D) ((D) citrate buffer pH 4.42, end of the experiment (7 hours)): no decomposition
- appearance after further stirring (D) ((D) citrate buffer pH 4.42, stirring for 7 hours): no significant change in appearance
- decomposition of C21 by UPLC (E) ((E) acetate buffer pH 4.49 then pH 6.8, end of the experiment): no decomposition
- appearance after raising pH (E) ((E) after 1 hour, 1M NaOH added to pH 6.8): slurry became slightly thinner
- appearance after further stirring (E) ((E) pH 6.8, stirring another hour): no significant change in appearance
Compound: CCCCOC(=O)[N-]S(=O)(=O)c1sc(CC(C)C)cc1-c1ccc(Cn2ccnc2)cc1.[Na+] [C21 sodium salt]
- dissolution behaviour on addition (E) (50.8 mg in 900 mL acetate buffer pH 4.49, 37±3° C.): formed a thin slurry which floated on the surface
- dissolution behaviour on addition (D) (51.0 mg in 900 mL 0.1M citrate buffer pH 4.42, 37±3° C., stirring): formed a thin slurry. It seemed that nothing had dissolved
- dissolution behaviour on addition (B) (51.2 mg in 900 mL acetate buffer pH 4.4, 37±3° C., stirring): formed a thin slurry which was floated on the surface top
- appearance after raising pH (A) ((A) 1M NaOH added to pH 6.8, stirring another 1.5 hours): no significant change in appearance (small white particles)
- appearance after raising pH (B) ((B) after 1 hour, 1M NaOH added to pH 7.2): slurry became thinner and pieces became smaller and goo-like
- appearance after further stirring (B) ((B) pH 7.2, stirring another 1.5 hours): no significant change in appearance (small goo-like particles)
